Reference: article PMC10786919, “Design-rules for stapled peptides with in vivo activity and their application to Mdm2/X antagonists” (Nature Communications, 2024)
pEC50: −log10 of the molar value. Values after ≈ are worked out from the molar mass of the structure shown. Like-named read-outs stand apart in the source and are kept apart here. Positions of bridges follow the written chain, without caps; N, C: chain ends. Non-standard residues stand in square brackets, D forms with d. Residues, ends and D or L forms follow the SMILES beside them. Lys(N3) = [N-]=[N+]=NCCCC[C@H](N)C(=O)O; R8 = C=CCCCCCC[C@@](C)(N)C(=O)O; Cba = N[C@@H](CC1CCC1)C(=O)O; S5 = C=CCCC[C@](C)(N)C(=O)O; βAla = NCCC(=O)O

How the values were obtained:
[1] = Lactate dehydrogenase (LDH) release assay; assay type: cell-based
Method in brief: (§1)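 LDH release, fluorometric membrane-integrity read-out; HCT116 with stable p53-responsive β-lactamase reporter; 8000 cells/well; 0.5% DMSO final; geometric mean, n≥3 biological replicates.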

[2] = Solubility assay (kinetic solubility, PBS pH 7); assay type: physicochemical; conditions: pH 7, PBS; for solubility kinetic: pH 7, aqueous buffer, kinetic from dmso stock, read-out: Solubility
Method: The standard reference solutions were prepared by diluting the 10 mM stock in 10:80:10 solution of acetonitrile:methanol:DMSO to 100 µM.
The solubility value is calculated by the following equation:
Solubility [µM] = (Peak area of sample/ Peak area of standard) (Standard concentration)

[3] = in vitro
Excerpt: Further, there have been several literature reports[18]–[20] that highlight that the combination of hydrophobic character and positive charge can result in mast cell degranulation (MCD), a potentially fatal condition[18]–[20]. […] The NanoClick assay[22] determines permeability of azide-labeled peptides by combining intracellular copper-free click chemistry with NanoBRET technology. Specifically, if an azido-peptide achieves cytosolic exposure, it will react with a cyclooctyne-decorated Halotag construct that is fused with nanoluciferase. This reaction blocks the click labelling of a subsequently added azido-labeled acceptor dye, thus decreasing the NanoBRET signal in a manner that is target-binding agnostic.
This assay was previously described in detail. The assay was performed in 384-well white assay plates (PerkinElmer CUSG03874) using assay-ready frozen cells that had been transiently transfected with the NanoLuc-HaloTag vector that were thawed at plated in complete media at a density of 6000 cells/ well and incubated at 37 °C 5% CO2 overnight. DIBAC-CA was diluted in assay buffer (OptiMem without phenol red + 1% FBS) and added to cells at a final concentration of 3 μM and incubated at 37 °C 5% CO2 for 1 h. Cells were subsequently centrifuged using a BlueWasher instrument (Blue Cat Bio) to remove the DIBAC-CA solution and washed two times with HBSS (Ca2 + , Mg2 + ). A volume of 30 μL of assay buffer was added back to cell plates. Peptides were serially diluted 4-fold in DMSO with a Hamilton Star apparatus and then delivered into assay plates with an acoustic liquid handler Labcyte ECHO (300 nl, 1% DMSO in-well concentration). After incubating cells with peptide for the desired time (4 or 18 h), the HaloTag ligand, NanoBret618-azide, was added to each well at a final concentration of 10 μM. […] Following addition of NanoBRET Nano-Glo Substrate, donor emission (450 nm) and acceptor emission (610 nm) were measured using an Envision instrument (PerkinElmer).

[4] = Experimental LogD (partition coefficient); conditions: for logD: not stated, Partition Coeff LogD
[5] = tested on: HCT116 cells; assay: Lactate dehydrogenase (LDH) release assay; assay type: cell-based
Method in brief: as §1

[6] = Nanoclick permeability assay EC50

| Structure (SMILES) | solubility kinetic [2] | cell entry EC50 [3, 6] | logD [4] | pEC50 ([1]; LDH: Cytotoxicity assay EC50) | other results |
| --- | --- | --- | --- | --- | --- |
| CC(=O)N[C@@H](CCC(=O)O)C(=O)N[C@@H](CCC(=O)O)C(=O)N[C@@H](CCC(=O)O)C(=O)N[C@@H](CCCCN=[N+]=[N-])C(=O)NCCC(=O)N[C@@H](CC(C)C)C(=O)N[C@H](C(=O)N[C@@H](Cc1ccccc1)C(=O)N[C@]1(C)CCCCCCC=CCCC[C@@](C)(C(=O)N[C@@H](CCC(=O)O)C(=O)N[C@@H](CC(N)=O)C(=O)N[C@@H](Cc2ccccc2)C(N)=O)NC(=O)[C@H](CC2CCC2)NC(=O)[C@H](CCC(N)=O)NC(=O)[C@H](C)NC(=O)[C@H](Cc2c[nH]c3ccccc23)NC(=O)[C@H](Cc2ccc(O)cc2)NC(=O)[C@H](CCC(=O)O)NC1=O)[C@@H](C)O [MP-763] (Ac-EEE[Lys(N3)][βAla]LTF[R8]EYWAQ[Cba][S5]ENF-NH2; staple 9-16) | 156 µM (≈ 393 µg/mL) | 1140 nM | 1.86 |  | pEC50 ([1]; LDH: Cytotoxicity assay: EC50): < 4.29 |
| CC(C)C[C@@H]1NC(=O)[C@H](C)NC(=O)[C@H](Cc2c[nH]c3ccccc23)NC(=O)[C@H](Cc2ccc(O)cc2)NC(=O)[C@H](CCC(=O)O)NC(=O)[C@](C)(NC(=O)[C@H](Cc2ccccc2)NC(=O)[C@H](CO)NC(=O)[C@@H](NC(=O)[C@H](CO)NC(=O)CNC(=O)[C@H](CO)NC(=O)[C@H](CCCCN=[N+]=[N-])NC(=O)[C@H](CCC(=O)O)NC(=O)[C@H](CCC(=O)O)NC(=O)[C@@H](N)CCC(=O)O)[C@@H](C)O)CCCCCCC=CCCC[C@@](C)(C(=O)N[C@@H](CCC(=O)O)C(=O)N[C@@H](CC(N)=O)C(N)=O)NC(=O)[C@H](CC(C)C)NC1=O [MP-949] (H-EEE[Lys(N3)]SGSTSF[R8]EYWALL[S5]EN-NH2; staple 11-18) | 104 µM (≈ 253 µg/mL) | 4350 nM | 1.66 | < 4.30 |  |
| CC(=O)N[C@@H](CCCCN=[N+]=[N-])C(=O)NCCC(=O)N[C@@H](CC(C)C)C(=O)N[C@H](C(=O)N[C@@H](Cc1ccccc1)C(=O)N[C@]1(C)CCCCCCC=CCCC[C@@](C)(C(=O)N2CCC[C@H]2C(=O)N2CCC[C@H]2C(=O)N2CCC[C@H]2C(=O)N2CCC[C@H]2C(=O)N2CCC[C@H]2C(=O)N2CCC[C@H]2C(N)=O)NC(=O)[C@H](CC2CCC2)NC(=O)[C@H](CCC(N)=O)NC(=O)[C@H](C)NC(=O)[C@H](Cc2c[nH]c3ccccc23)NC(=O)[C@H](Cc2ccc(O)cc2)NC(=O)[C@H](CCC(=O)O)NC1=O)[C@@H](C)O [MP-093] | 156 µM (≈ 363 µg/mL) | 1380 nM | 2.28 | < 4.29 |  |
| C[C@H](NC(=O)[C@H](C)NC(=O)[C@H](C)NC(=O)[C@]1(C)CCCC=CCCCCCC[C@@](C)(NC(=O)[C@H](Cc2ccccc2)NC(=O)[C@@H](NC(=O)[C@H](C)NC(=O)CCNC(=O)[C@H](CCCCN=[N+]=[N-])NC(=O)[C@H](C)NC(=O)[C@H](C)NC(=O)[C@H](CCCNC(=N)N)NC(=O)[C@H](CCCNC(=N)N)NC(=O)[C@H](CO)NC(=O)[C@H](CCCNC(=N)N)NC(=O)[C@H](CO)NC(=O)[C@H](CCCNC(=N)N)NC(=O)CN)[C@@H](C)O)C(=O)N[C@@H](C)C(=O)N[C@@H](Cc2ccc(O)cc2)C(=O)N[C@@H](Cc2c[nH]c3ccccc23)C(=O)N[C@@H](C)C(=O)N[C@@H](C)C(=O)N[C@@H](CC2CCC2)C(=O)N1)C(N)=O [MP-878] (H-GRSRSRRAA[Lys(N3)][βAla]ATF[R8]AYWAA[Cba][S5]AAA-NH2; staple 15-22) |  | 2100 nM | 2.81 |  | Solubility [2]: Poorly Behaved |
| CC(=O)N[C@@H](CCCCN=[N+]=[N-])C(=O)NCCC(=O)N[C@@H](CC(C)C)C(=O)N[C@H](C(=O)N[C@@H](Cc1ccccc1)C(=O)N[C@]1(C)CCCCCCC=CCCC[C@@](C)(C(=O)N[C@@H](C)C(=O)N[C@@H](C)C(=O)N[C@@H](CCC(=O)O)C(=O)N[C@@H](C)C(=O)N[C@@H](C)C(=O)N[C@H](C)C(N)=O)NC(=O)[C@H](CC2CCC2)NC(=O)[C@H](CCC(N)=O)NC(=O)[C@H](C)NC(=O)[C@H](Cc2c[nH]c3ccccc23)NC(=O)[C@H](Cc2ccc(O)cc2)NC(=O)[C@H](CCC(=O)O)NC1=O)[C@@H](C)O [MP-833] (Ac-[Lys(N3)][βAla]LTF[R8]EYWAQ[Cba][S5]AAEAA[dA]-NH2; staple 6-13) | 154 µM (≈ 343 µg/mL) |  |  |  | pEC50 ([1]; 0% FBS 4Hr, read-out: LDH: Cytotoxicity assay EC50): < 4.29; pEC50 ([1]; 10% FBS 16Hr, read-out: LDH: Cytotoxicity assay EC50): < 4.29; LDH: Cytotoxicity assay % Effect ([5]; 0% FBS 4Hr): 3.813%; LDH: Cytotoxicity assay % Effect ([5]; 10% FBS 16Hr): 10.68%; cell entry EC50 [3]: 1020 nM |
| CC(=O)N[C@@H](CCCCN=[N+]=[N-])C(=O)NCCC(=O)N[C@@H](CC(C)C)C(=O)N[C@H](C(=O)N[C@@H](Cc1ccccc1)C(=O)N[C@]1(C)CCCCCCC=CCCC[C@@](C)(C(=O)N[C@@H](C)C(=O)N[C@@H](C)C(=O)N[C@@H](C)C(=O)O)NC(=O)[C@H](CC2CCC2)NC(=O)[C@H](CCC(N)=O)NC(=O)[C@H](C)NC(=O)[C@H](Cc2c[nH]c3ccccc23)NC(=O)[C@H](Cc2ccc(O)cc2)NC(=O)[C@H](CCC(=O)O)NC1=O)[C@@H](C)O [MP-684] |  |  |  |  | pEC50 ([1]; 0% FBS 4Hr, read-out: LDH: Cytotoxicity assay: EC50): < 4.29; pEC50 ([1]; 10% FBS 16Hr, read-out: LDH: Cytotoxicity assay: EC50): < 4.29; cell entry EC50 [3]: 496 nM |
| CC(C)C[C@@H]1NC(=O)[C@H](C)NC(=O)[C@H](Cc2c[nH]c3ccccc23)NC(=O)[C@H](Cc2ccc(O)cc2)NC(=O)[C@H](CCC(=O)O)NC(=O)[C@](C)(NC(=O)[C@H](Cc2ccccc2)NC(=O)[C@H](CO)NC(=O)[C@@H](NC(=O)[C@H](CO)NC(=O)CNC(=O)[C@H](CO)NC(=O)[C@@H](N)CCCCN=[N+]=[N-])[C@@H](C)O)CCCCCCC=CCCC[C@@](C)(C(=O)N[C@@H](CCC(=O)O)C(=O)N[C@@H](CCC(=O)O)C(=O)N[C@@H](CCC(=O)O)C(N)=O)NC(=O)[C@H](CC(C)C)NC1=O [MP-951] (H-[Lys(N3)]SGSTSF[R8]EYWALL[S5]EEE-NH2; staple 8-15) | 119 µM (≈ 261 µg/mL) | 2150 nM | 1.94 | < 4.30 |  |
| CC(=O)N[C@@H](CCC(=O)O)C(=O)N[C@@H](CCC(=O)O)C(=O)N[C@@H](CCCCN=[N+]=[N-])C(=O)NCCCCCC(=O)N[C@H](C(=O)N[C@@H](CO)C(=O)N[C@@H](Cc1ccccc1)C(=O)N[C@]1(C)CCCCCCC=CCCC[C@@](C)(C(N)=O)NC(=O)[C@H](CC(C)C)NC(=O)[C@H](CC(C)C)NC(=O)[C@H](C)NC(=O)[C@H](Cc2c[nH]c3ccccc23)NC(=O)[C@H](Cc2ccc(O)cc2)NC(=O)[C@H](CCC(=O)O)NC1=O)[C@@H](C)O [MP-661] | 27 µM (≈ 53.7 µg/mL) | 546 nM | 2.02 | < 4.30 |  |
| CC[C@H](C)[C@H](NC(=O)[C@H](CC(C)C)NC(=O)[C@H](Cc1ccccc1)NC(=O)[C@@H](N)Cc1ccccc1)C(=O)N1CCC[C@H]1C(=O)N[C@@H](CCCCN)C(=O)NCC(=O)N[C@@H](CCCNC(=N)N)C(=O)N[C@@H](CCCNC(=N)N)C(=O)N[C@@H](CCCNC(=N)N)C(=O)N[C@@H](CCCNC(=N)N)C(=O)N[C@@H](CCCNC(=N)N)C(=O)N[C@@H](CCCNC(=N)N)C(=O)N[C@@H](CCCNC(=N)N)C(=O)N[C@@H](CCCNC(=N)N)C(=O)N[C@@H](CCCNC(=N)N)C(=O)N[C@@H](CCCCN=[N+]=[N-])C(=O)NCCC(=O)N[C@@H](CC(C)C)C(=O)N[C@H](C(=O)N[C@@H](Cc1ccccc1)C(=O)N[C@]1(C)CCCCCCC=CCCC[C@@](C)(C(=O)N[C@@H](CO)C(=O)N[C@@H](C)C(=O)N[C@@H](C)C(N)=O)NC(=O)[C@H](CC2CCC2)NC(=O)[C@H](CCC(N)=O)NC(=O)[C@H](C)NC(=O)[C@H](Cc2c[nH]c3ccccc23)NC(=O)[C@H](Cc2ccc(O)cc2)NC(=O)[C@H](CCC(=O)O)NC1=O)[C@@H](C)O [MP-656] (H-FFLIPKGRRRRRRRRR[Lys(N3)][βAla]LTF[R8]EYWAQ[Cba][S5]SAA-NH2; staple 22-29) |  | 544 nM |  |  | Solubility [2]: Poorly Behaved; Partition Coeff LogD [4]: Poorly Behaved |
| CC(=O)N[C@@H](CCCCN=[N+]=[N-])C(=O)NCCC(=O)N[C@@H](CC(C)C)C(=O)N[C@H](C(=O)N[C@@H](Cc1ccccc1)C(=O)N[C@]1(C)CCCCCCC=CCCC[C@@](C)(C(=O)N[C@@H](CO)C(=O)N[C@@H](C)C(=O)N[C@@H](CCCNC(=N)N)C(N)=O)NC(=O)[C@H](CC2CCC2)NC(=O)[C@H](CCC(N)=O)NC(=O)[C@H](C)NC(=O)[C@H](Cc2c[nH]c3ccccc23)NC(=O)[C@H](Cc2ccc(O)cc2)NC(=O)[C@H](CCC(=O)O)NC1=O)[C@@H](C)O [MP-480] (Ac-[Lys(N3)][βAla]LTF[R8]EYWAQ[Cba][S5]SAR-NH2; staple 6-13) |  | 100 nM |  |  | pEC50 ([1]; LDH: Cytotoxicity assay: EC50): < 4.30 |
